Literature values as cited in patent US12466782B2, “Arylcyclohexylamine derivatives and process for preparing same” (Technische Hochschule Köln, priority 2020, dated 2025).

Details: mouse model

NC1(c2ccccc2Cl)CCCC(O)C1=O (stereo not shown) [6-hydroxynorketamine]
dose at which an effect comparable to that of 10 mg/kg ketamine was observed: ≥ 25 mg/kg
